Test results from patent publication US20240181001A1, “TREATMENT” (Queen Mary University London, priority 2021, published 2024).
Entries after “also recorded” stand apart in the source; their conditions may differ.

How the values were obtained:
KP tumors = type: in vivo, mouse
Procedure: Kras^LSL-G12D/+; Trp53^flox/flox (referred to as KP) were used to generate lung adenocarcinomas by administering Ad-Cre (Cre recombinase Adenovirus) 5×10^7 PFU as previously described (DuPage et al, 2009; Cortez-Retamozo et al, 2013; Pfirsche et al, 2016).
CTLA-4 mAb (clone—9D9) (Bio X Cell) 100 μg/mouse was administered twice a week over 3 weeks. Rat IgG2a isotype control, anti-trinitrophenol (Clone 2A3) (Bio X Cell) 100 μg/mouse was administered twice a week during 3 weeks.
For VEGFR2 inactivation, KP mice were administered with anti-VEGFR2 (clone DC101, Bio X Cell) twice per week during three weeks.
In order to deplete CD8+ cells, KP mice were administered with anti-CD8α mAb intraperitoneally (clone YTS 169.4, BioXcell) twice per week after the first day of treatment and until the end of the experiments.
In order to deplete IFN-γ, KP mice were administered with anti-IFN-γ mAb intraperitoneally (XMG1.2, Bio X Cell) twice per week after the first day of treatment and until the end of the experiments. To deplete CXCL9, KP mice were administered with anti-CXCL9 mAb intraperitoneally (MIG-2F5.5, Bio X Cell) twice per week after the first day of treatment and until the end of the experiments. […]

KP lung tumor cells = assay: Cell survival assay (MTS), KP cells; type: cell-based, mouse; details: increasing concentrations of cisplatin alone or with 2nM 29P
Procedure: The lung adenocarcinoma cell line KP53 F1 was derived from lung tumors of C57BL/6 KP mice and was kindly provided by Dr. S A. Quezada, UCL Cancer Centre (University College London, UK).
(§1) A549 or KP cell survival was analyzed using the CellTiter96® Aqueous One Solution Reagent (Promega #G3582) according to the manufacturer's instructions. Briefly, 1000 cells were seeded into 96-well plated. Cells were treated the following day and the solution reagent was added after 72 hours of treatment. Plates were read using a wavelength of 490 nm.

[1] = system: human lung adenocarcinoma (A549) cells; assay: Cell survival assay (MTS), A549 cells; type: cell-based; details: increasing concentrations of cisplatin alone or with 2nM 29P
Procedure: A549 and LLC cells were purchased from ATCC. Mouse Lung Endothelial cells (EC) were obtained and cultured as previously described (34).
as §1

[2] = Side effects in C57/BL6 mice: body weight, lymphocytes, creatinine; type: in vivo, mouse; details: Cis^3/anti-PD-1/anti-CTLA-4 and 29P, compared with Cis^6/anti-PD-1/anti-CTLA-4, placebo or single agent 29P
Procedure: FIG. 3 illustrates that 29P treatment sensitizes KP tumors to current immunotherapies and chemotherapies. […] (A, B, E) Representative images of hematoxylin-eosin stained lungs and quantification of number of tumor foci and tumor burden. […] (D) C57/BL6 mice were treated with Placebo, 29P, Cis^6/α-PD-1+α-CTLA-4 and Cis^3/α-PD-1+α-CTLA-4/29P. […] (F) Representative images of hematoxylin-eosin stained lungs (left) and quantification of mouse body weights and tumor burden (right). N.S. Not significant/p>0.05, *p<0.05, **p<0.01, ***p<0.001. (A,B,D-F) ordinary One-way ANOVA with Tukey's multiple comparison test, for not normally distributed data Kruskal-Wallis test with Dunn's multiple comparison test, (C) Mantel-Cox test, n=5-8 per treatment. Scale bars: 5 mm in H&E staining.

KP tumor burdened lung = assay: Flow cytometry of lungs bearing KP tumors; type: in vivo, mouse; details: cisplatin treatment
Procedure: Tumors were minced and incubated at 37° C. for 20 min in an enzymatic cocktail containing DNase (0.5 mg/ml, Sigma). Liberase (2 mg/ml, Sigma) in HBSS (Sigma) was used to make a single cell suspension for pancreatic tumors. For breast tumors, collagenase/dispase (1 mg/ml, Sigma) in PBS, was used to make a single cell suspension. Cells were passed through a […] filter (BD Biosciences), washed in PBS supplemented with 2% foetal bovine serum and 2 mM EDTA, counted and used immediately for flow cytometry. Before cells were stained with specific antibodies, nonspecific binding sites were blocked with Fcγ R III/II TruStain fcX (93, Biolegend). Staining was performed in PBS supplemented with 2% foetal bovine serum and 2 mM EDTA. The following fluorochrome-conjugated antibodies were used: anti-CD45 (30-F11), anti-CD3 (145-2C11), anti-CD4 (L3T4), anti-CD8 (53-6.7), anti-CD69 (H1.2F3), anti-CD44 (IM7), anti-CD62L (MEL-14), anti-CD19 (6D5), anti-CD11b (M1/70), anti-F4/80 (BM8) from Biolegend; anti-PD1 (RMP1-30), anti-Gr1 (RB6-8C5) and anti-Ly6C (HK1.4) from eBioscience. Fixable viability dye (FVD) (eBioscience) was used to discriminate between live and dead cells. Acquisition and analyses were performed on a BD LSRII system using BD […] software (BD Biosciences). The percentage of cells were analysed using FlowJo software (version 10.0.8 tree Star). Dead cells were excluded from the analysis on the basis of FVD and SSC gating. Cell doublets were excluded from the analysis by gating for FSC area versus FSC width. CD45+ cells were used to include leukocytes only in the data analysis.

| SMILES | weight loss side effect (KP tumors; mouse, in vivo) | cisplatin cytotoxicity with 29P addition (MTS cell viability) (KP lung tumor cells) | cisplatin cytotoxicity with 29P addition (MTS cell viability) [1] | body weight [2] | creatinine levels [2] | lymphocyte numbers [2] | anti-tumor effect (KP tumors; KP mice, Cis^6 (cisplatin 6 mg/kg) alone) | T cell (CD4+ and CD8+) numbers (KP tumor burdened lung) | myeloid cell (Gr1+, Natural killer cells, dendritic cells, monocytes) numbers (KP tumor burdened lung) | tumor associated macrophages (KP tumor burdened lung) |
| --- | --- | --- | --- | --- | --- | --- | --- | --- | --- | --- |
| CCCCCCOC(=O)N=C(NCCC[C@@H]1NC(=O)[C@@H](C(C)C)N(C)C(=O)[C@H](C)N(C)C(=O)[C@H](C)NC(=O)[C@H](CC(=O)OC)NC(=O)CNC1=O)NC(=O)OCCCCCC [29P, c(*vR(Hoc)2GD(OMe)A*A)] | without apparent adverse weight loss side effects | independent of 29P addition | independent of 29P addition | restored; also recorded: significantly improved parameters | restored; also recorded: significantly improved parameters | restored; also recorded: significantly improved parameters |  |  |  |  |
| N.N.[Cl][Pt][Cl] [cisplatin] |  |  |  |  |  |  | clear anti-tumor effect | increased | increased | a reduction |
